Reference: patent publication US9682988B2, “Solid salt form of α-6-mPEG6-O-hydroxycodone as opioid agonists and uses thereof” (Nektar Therapeutics, priority 2012, dated 2017)

Legend:
Type in all cases: physicochemical
[1] = Bulk and tap density of the solid salt
Procedure: (§1) 27.22 g of freebase alpha-6-mPEG6-O-hydroxycodone was added to a 250 mL jacketed flask. The flask was equipped with a nitrogen inlet, mechanical stirrer and temperature probe connected to a digital read-out. 163 mL of tBME (methyl tert-butyl ether):heptane (5:1 vol:vol) was added to make a homogeneous solution at 15° C. Aqueous phosphoric acid (3103 μL of 85+%) was added over 1 hr at 10 minutes intervals. During the first addition, the initially formed solids were long strings and agitation helped to transform fine solid in matter of seconds. Exothermic temperature spikes occurred; the range of these increases was 8-10° C. observed during the initial 5 added portions. During the 6th and 7th added portion the temperature spike was reduced substantially to increments of a Celsius degree. After 2 hours the slurry was filtered. The filtration rate was instantaneous with no solvent retention. The wet cake was washed with 90 mL tBME (2×45 mL) and set to dry at ambient temperature overnight inside a vacuum oven. The isolated 30.57 g of white solid (96.5% isolated yield) was filtered. The solid after delumping with spatula was free flowing. The % LOD of the wet cake was at 43.2%. HPLC purity was at 98.6%. Bulk density was 0.3276 g/mL, tap density was 0.3931 g/mL, and the Hausner ratio was 1.20. XRPD conformed to the salt prepared according to Example 3. FIG. 16 depicts various XRPD scans for the salt prepared according to Example 7 on a 30 g, 100 g, and 520 g scale and a salt prepared according to Example 3 on a 100 g scale. XRPD patterns were obtained using a Bruker D8 Advance equipped with a Cu Kα radiation source (1.54 Å), a 9-position sample holder and a LYNXEYE Super Speed Detector. Typically, the duration of each scan was 180 seconds and the 2θ range was 4 to 40°. Samples were placed on zero-background, silicon plate holders. DSC data were collected using a TA Instruments Q10 DSC. Typically, samples (˜2 mg) were placed in hermetic alodined aluminum sample pans and scanned from 30 to 350° C. at a rate of 10° C./min under a nitrogen purge of 50 mL/min. A Malvern Hydro 2000 SM (A) Mastersizer was used for particle size analysis data using a generic method. Ethyl acetate was used as the dispersant, with a pump speed of 2000 rpm, obstruction of 10-15%. The addition style included direct addition of the solid to the dispersant until desired obstruction is achieved. The number of measurements was a minimum of two. For PSD analysis, a sample was taken from the bulk of the solid. FIGS. 13, 14, and 15 are plots of the PSD analysis for the 30 g, 100 g, and 520 g lots respectively.

[2] = Particle size distribution (Malvern Mastersizer); conditions: ethyl acetate dispersant; phosphate salt
Procedure: as §1

Water vapor sorption = conditions: phosphate salt
Procedure: Moisture sorption/desorption data were collected on a VTI SGA-1 00 Vapor Sorption Analyzer. Sorption and desorption data were collected over a range of 5% to 95% relative humidity (RH) at 10% RH intervals under a nitrogen purge. Samples were not dried prior to analysis. Equilibrium criteria used for analysis were less than 0.0100% weight change in 5 minutes, with a maximum equilibration time of 3 hours if the weight criterion was not met. Data were not corrected for the initial moisture content of the samples. NaCl and PVP were used as calibration standards.

[3] = Description of the isolated solid (hygroscopicity); conditions: after drying under vacuum at ambient temperature
Procedure: A solution of α-6-mPEG6-O-hydroxycodone was prepared in a mixture of methanol and tert-butyl methyl ether (2:1, 2 volumes) at 30° C. A solution of phosphoric acid (85% aqueous, 1.05 eq) was prepared in a mixture of methanol and tert-butyl methyl ether (2:1, 1.2 volumes) at 20° C. The solutions were combined, maintaining a temperature of 30-50° C., resulting in the formation of dissolved α-6-mPEG6-O-hydroxycodone phosphate. This salt solution was adjusted to 40° C., and gradually transferred over the course of 1-3 hours into a solution of heptanes and tert-butyl methyl ether (4:1, 14 volumes) maintained at 45° C. During the transfer, α-6-mPEG6-O-hydroxycodone phosphate precipitated from the combined streams. The resulting slurry was cooled to 20° C. and agitation was ceased, permitting the solids to settle. The supernate was decanted, and heptanes (6 volumes) were added to the solids. The solids were slurried for at least one hour at 30° C., after which the slurry was cooled to 20° C. Again agitation was ceased, the solids were allowed to settle, and the supernate was decanted. Fresh heptanes were added to the solids, which were again slurried for at least one hour at 30° C. The slurry was cooled to 20° C., filtered, and washed with fresh heptanes (2 volumes). […] The solid form prepared according to this Example has a melting point in the range of about 175-177° C. […]

[4] = listed as Alpha 6-mPEG6-O-Hydroxycodone Phosphate Salt

| Structure (SMILES) | Bulk Density ([1]; phosphate salt) | Hausner ratio ([1]; phosphate salt) | Tap Density ([1]; phosphate salt) | Particle Size Distribution DV[10] [2] | Particle Size Distribution DV[50] [2] | Particle Size Distribution DV[90] [2] | Water Vapor Sorption (gain between 0-50% RH) (Water vapor sorption) | nature of the isolated solid [3] | Bulk Density [1, 4] | Hausner ratio [1, 4] | Tap Density [1, 4] |
| --- | --- | --- | --- | --- | --- | --- | --- | --- | --- | --- | --- |
| COCCOCCOCCOCCOCCOCCO[C@H]1CC[C@@]2(O)[C@H]3Cc4ccc(OC)c5c4[C@@]2(CCN3C)[C@H]1O5.O=P(O)(O)O [520 g Lot, α-6-mPEG6-O-hydroxycodone phosphate salt] | 0.39 g/mL | 1.25 | 0.49 g/mL | DV[10] = 7 μm | DV[50] = 47 μm | DV[90] = 93 μm | 4.2% |  |  |  |  |
| COCCOCCOCCOCCOCCOCCO[C@H]1CC[C@@]2(O)[C@H]3Cc4ccc(OC)c5c4[C@@]2(CCN3C)[C@H]1O5.O=P(O)(O)O [100 g Lot, α-6-mPEG6-O-hydroxycodone phosphate salt] | 0.37 g/mL | 1.30 | 0.48 g/mL | DV[10] = 9 μm | DV[50] = 53 μm | DV[90] = 109 μm | 4.1% |  |  |  |  |
| COCCOCCOCCOCCOCCOCCO[C@H]1CC[C@@]2(O)[C@H]3Cc4ccc(OC)c5c4[C@@]2(CCN3C)[C@H]1O5.O=P(O)(O)O [α-6-mPEG6-O-hydroxycodone phosphate] |  |  |  |  |  |  |  | slightly waxy, hygroscopic powder | 0.3276 g/mL | 1.20 | 0.3931 g/mL |
| COCCOCCOCCOCCOCCOCCO[C@H]1CC[C@@]2(O)[C@H]3Cc4ccc(OC)c5c4[C@@]2(CCN3C)[C@H]1O5.O=C(O)C(O)C(O)C(=O)O [α-6-mPEG6-O-hydroxycodone D-tartrate] |  |  |  |  |  |  |  | deliquescent white powder |  |  |  |
| COCCOCCOCCOCCOCCOCCO[C@H]1CC[C@@]2(O)[C@H]3Cc4ccc(OC)c5c4[C@@]2(CCN3C)[C@H]1O5.O=P(O)(O)O [30 g Lot, α-6-mPEG6-O-hydroxycodone phosphate salt] | 0.33 g/mL | 1.18 | 0.39 g/mL | DV[10] = 7 μm | DV[50] = 47 μm | DV[90] = 92 μm | 4.2% |  |  |  |  |
